Assay results reported in ChEMBL document CHEMBL1201862, “PubChem BioAssay data set” (2004).
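Interpolation was linear, between the two tested concentrations surrounding the appropriate level; five concentrations were tested over 48 hours in 96-well plates. GI50: concentration for 50% inhibition of growth.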 The source made the active and inactive calls. Cut-off read from the data, not from the text of the source: active = GI50 up to about 1.1 µM and inactive = higher.

What was measured:
Experiment in all cases: NCI anticancer screen, dose series, 48 h
A549 = system: A549
HCC 2998 = system: HCC 2998
HOP-62 = system: HOP-62
NCI-H226 = system: NCI-H226
DU-145 = system: DU-145
HCT-15 = system: HCT-15
SF-268 = system: SF-268
NCI-H23 = system: NCI-H23
SK-MEL-5 = system: SK-MEL-5
PC-3 = system: PC-3
CCRF-CEM = system: CCRF-CEM
HOP-92 = system: HOP-92
TK-10 = system: TK-10
Malme-3M = system: Malme-3M
OVCAR-8 = system: OVCAR-8
SF-295 = system: SF-295
HCT-116 = system: HCT-116
NCI-H522 = system: NCI-H522
BT-549 = system: BT-549
Hs-578T = system: Hs-578T

SMILES	GI50 (A549)	GI50 (HCC 2998)	GI50 (HOP-62)	GI50 (NCI-H226)	GI50 (DU-145)	GI50 (HCT-15)	GI50 (SF-268)	GI50 (NCI-H23)	GI50 (SK-MEL-5)	GI50 (PC-3)	GI50 (CCRF-CEM)	GI50 (HOP-92)	GI50 (TK-10)	GI50 (Malme-3M)	GI50 (OVCAR-8)	GI50 (SF-295)	GI50 (HCT-116)	GI50 (NCI-H522)	GI50 (BT-549)	GI50 (Hs-578T)
OCCN(CCO)CCn1cnc2c(NCc3ccccc3)ncnc21	> 100 µM (inactive)	> 100 µM (inactive)	> 100 µM (inactive)	> 100 µM (inactive)	> 100 µM (inactive)	> 100 µM	> 100 µM (inactive)	> 100 µM (inactive)	> 100 µM (inactive)	> 100 µM (inactive)	> 100 µM (inactive)	> 100 µM (inactive)	> 100 µM (inactive)	> 100 µM (inactive)	> 100 µM (inactive)	> 100 µM (inactive)	> 100 µM (inactive)	> 100 µM (inactive)	> 100 µM (inactive)	> 100 µM (inactive)
CCOC(=O)c1cc2c([N+](=O)[O-])c(N)ccc2s1	> 100 µM (inactive)	> 100 µM (inactive)	> 100 µM (inactive)	> 100 µM (inactive)	> 100 µM (inactive)	> 100 µM	> 100 µM (inactive)	> 100 µM (inactive)	> 100 µM (inactive)	> 100 µM (inactive)	> 100 µM (inactive)	> 100 µM (inactive)	> 100 µM (inactive)	> 100 µM (inactive)	> 100 µM (inactive)	> 100 µM (inactive)	> 100 µM (inactive)	> 100 µM (inactive)	> 100 µM (inactive)	> 100 µM (inactive)
C=CC1(C)CCC2C(=CCC3C(C)(COC4OC(C(=O)O)C(O)C(O)C4O)C(O)CCC23C)C1.C=CC1(C)CCC2C(=CCC3C2(C)CC(O)C(O)C3(C)COC2OC(C(=O)O)C(O)C(O)C2O)C1 (stereo not given)	> 100 µM (inactive)	> 100 µM (inactive)	> 100 µM (inactive)	> 100 µM (inactive)	> 100 µM (inactive)	> 100 µM	> 100 µM (inactive)	> 100 µM (inactive)	> 100 µM (inactive)	80.4 µM (inactive)	19.4 µM (inactive)	> 100 µM (inactive)	46.1 µM (inactive)	> 100 µM (inactive)	> 100 µM (inactive)	70.1 µM (inactive)	> 100 µM (inactive)	> 100 µM (inactive)	> 100 µM (inactive)	> 100 µM (inactive)
CN(C)Cc1cc(/N=N/c2ccccc2)cc(CN(C)C)c1O	> 100 µM (inactive)	79.1 µM (inactive)	> 100 µM (inactive)	> 100 µM (inactive)	92.5 µM (inactive)	56.6 µM	73.5 µM (inactive)	> 100 µM (inactive)	> 100 µM (inactive)	> 100 µM (inactive)	32.3 µM (inactive)	63.1 µM (inactive)	> 100 µM (inactive)	> 100 µM (inactive)	57.1 µM (inactive)	> 100 µM (inactive)	53.6 µM (inactive)	> 100 µM (inactive)	> 100 µM (inactive)	> 100 µM (inactive)
CCOC(=O)/C(C#N)=C/c1ccc2c(-c3c(OCC)ccc4cc(/C=C(\C#N)C(=O)OCC)ccc34)c(OCC)ccc2c1	> 100 µM (inactive)	> 100 µM (inactive)	> 100 µM (inactive)	> 100 µM (inactive)	> 100 µM (inactive)	> 100 µM	> 100 µM (inactive)	> 100 µM (inactive)	> 100 µM (inactive)	> 100 µM (inactive)	> 100 µM (inactive)	> 100 µM (inactive)	> 100 µM (inactive)	> 100 µM (inactive)	> 100 µM (inactive)	> 100 µM (inactive)	> 100 µM (inactive)	> 100 µM (inactive)	> 100 µM (inactive)	> 100 µM (inactive)
C/C1=C\[C@H](C)C[C@H](C)OC(=O)[C@H](C)NC(=O)[C@@H](Cc2ccc(O)c(Br)c2)N(C)C(=O)[C@H](C)NC(=O)[C@@H](C)C1	0.0646 µM (active)	0.00408 µM (active)	0.0139 µM (active)	0.0505 µM (active)	0.155 µM (active)	0.982 µM	0.0331 µM (active)	0.462 µM (active)	0.0127 µM (active)	0.0335 µM (active)	0.0124 µM (active)	0.0533 µM (active)	0.0724 µM (active)	0.0708 µM (active)	0.147 µM (active)	0.0578 µM (active)	0.00382 µM (active)	0.0149 µM (active)	0.132 µM (active)	0.094 µM (active)
CNC=O	> 10000 µM (inactive)	> 3980 µM (inactive)	> 3980 µM (inactive)	> 10000 µM (inactive)	> 10000 µM (inactive)	> 10000 µM	> 10000 µM (inactive)	> 10000 µM (inactive)	> 10000 µM (inactive)	> 10000 µM (inactive)	> 10000 µM (inactive)	> 9530 µM (inactive)	> 10000 µM (inactive)	> 10000 µM (inactive)	> 10000 µM (inactive)	> 9510 µM (inactive)	> 10000 µM (inactive)	> 10000 µM (inactive)	> 10000 µM (inactive)	> 10000 µM (inactive)
